What all share (format): functional
What all share (settings): read-out: DIZ

The test system of one experiment is Escherichia coli. The experiment is described as follows: Antibacterial activity against Escherichia coli ATCC 25922 assessed as diameter of zone inhibition at 30 ug/ml.
The test system of a further experiment is Bacillus subtilis. The experiment is described as follows: Antibacterial activity against Bacillus subtilis ATCC 6633 assessed as diameter of zone inhibition at 30 ug/ml.
For another experiment, the system named is Candida albicans. The experiment is described as follows: Antifungal activity against Candida albicans ATCC 653/885 assessed as diameter of zone inhibition at 30 ug/ml.
A further experiment has as its system Staphylococcus aureus. In words: Antibacterial activity against Staphylococcus aureus ATCC 25923 assessed as diameter of zone inhibition at 30 ug/ml.

`Cc1ncc([N+](=O)[O-])n1CCO` [METRONIDAZOLE]: the zone of inhibition at 30 µg/mL in the experiment on Escherichia coli stood at 14 mm; in the experiment on Bacillus subtilis, 16 mm; in the experiment with Candida albicans, 14 mm; with Staphylococcus aureus, 14 mm.
